Converted amounts (≈) assume the structure as drawn. “And” between values parts separate entries of the source, which are not always exact repeats. Equal values may be shown once.
Experiments:
Aqueous solubility assay = assay type: physicochemical; conditions: DPBS buffer
Experimental: page 30: ADME Methods Aqueous solubility assay: Solubility assays were conducted using a Biomek FX lab automation workstation (Beckman Coulter, Inc., Fullerton, CA) and μSOL Evolution software (pION Inc., Woburn, MA). In a 96-well microplate (Cat. No: 3363, Corning Incorporated, Salt Lake, UT), 10 μL of a 10 mM test compound stock in DMSO was added to 190 μL 1-propanol (Thermo Scientific, spectroscopy, Cat. No: 434360010, Fair Lawn, NJ) to create a reference stock plate. From this reference stock plate, 5 μL solutions were mixed with 70 μL 1-propanol and 75 μL Dulbecco's Phosphate Buffered Saline (DPBS, 1X, GibcoTM, Cat. No: 14190-144, Thermo Fisher Scientifics, Waltham, MA) to generate the reference plate (high sensitivity UV plate, Cat. No: 110286, pION Inc., Woburn, MA). In a 96-well storage plate (Cat. No: 201276-100, Agilent, Santa Clara, CA), 6 μL of a 10 mM test compound stock was added to 600 μL buffer, mixed, sealed, and incubated at room temperature for 18 hours. […] UV spectra of the reference and sample plates were then read, and calculations based on the area under the curve (AUC) of the UV spectra were performed using μSOL Evolution software. […] The medium in the wells was changed every other day, and the trans epithelial electrical resistance (TEER) value was measured

[1] = Plasma stability assay, mouse; assay type: in vitro ADME; conditions: for Calculated Concentration: 0h standards set to Actual Concentration 100, IS warfarin, replicates
Experimental: page 32: Aldrich, Saint Louis, MO) were diluted into 0.1 M potassium phosphate buffer (PBS, pH 7.4, KH2PO4, Cat. No: P284-500; K2HPO4, Cat. No: BP363-500, Fisher Scientific, Fair Lawn, NJ) and mixed well. 40 μL of this solution was transferred into the above compounds plates. For the time 0 plate, 3 fold (v:v) cold acetonitrile with warfarin (400 ng/mL) as the internal standard was added to […] and B in PBS, pH 7.4) and no incubation. For the other five time points’ plates, 10 μL NADPH regenerating agent mixer was added to each well to initiate the reaction, the plate was sealed and incubated at 37° C on an orbital shaker (100 rpm) for the required time, followed by quenching of the reaction by adding 3-fold volume of cold acetonitrile with internal standard to each well. The final concentration of each component applied in this reaction was liver microsome protein at 0.5 […] After quenching, all plates were securely sealed and thoroughly mixed at 600 rpm for 10 minutes. Subsequently, centrifugation was performed at 4000 rpm for 20 minutes. The resulting supernatants […] analysis using UPLC–MS/MS. The assessment of metabolic stability involved determining the half- life through a least-squares fit of multiple time points, employing first-order kinetics. Plasma stability assay5: The degradation of human or mouse plasma was assessed by monitoring the gradual reduction of the parent compound over specified time intervals (0, 3, 24, and 48 hours). Human and mouse plasma samples were sourced from GeneTex (Irvine, CA). Test compound stock solutions, prepared at 10 mM in DMSO, were dispensed into triplicate wells of a 96-well microplate using the Labcyte Echo 650 dispenser. For plates, excluding the time 0-hour plate, plasma was […] The plate was sealed, incubated at 37°C on an orbital shaker (100 rpm) for the required duration, and then quenched with cold acetonitrile, incorporating warfarin as the internal standard. In the case of the time 0-hour plate, cold acetonitrile with the internal standard was added to each well before introducing plasma, eliminating page 33: the need for further incubation. Following quenching, all plates were thoroughly mixed at 600 rpm for 10 minutes and centrifuged at 4000 rpm for 20 minutes. Supernatants were transferred to […] MS/MS analysis. Plasma stability was evaluated by determining the half-life through a least-squares fit of multiple time points based on first-order kinetics. Plasma protein binding assay: Test compound stock solutions were prepared at a concentration of 10 mM in DMSO. A Single-Use RED (Rapid Equilibrium Dialysis) device was acquired from Thermo Scientific (Cat. No: 99006, Rockford, IL). The sample preparation for plasma protein binding followed a modified version of Waters' method6. After thawing, plasma was centrifuged at 1000 rpm for 10 minutes to eliminate any particulates. Each compound was then prepared at a concentration of 10 µM in either human or mouse plasma. In the plasma protein binding assessment, 300 µL of spiked plasma solutions were introduced into the sample chamber (indicated by the red ring), while 550 µL of DPBS was added to the adjacent chamber. The plate was sealed and incubated at 37°C on an orbital shaker (100 rpm) for 4 hours. Post -incubation, 50 µL aliquots were withdrawn from each side of the insert and dispensed into a 96 -well storage plate. To create analytically identical sample matrices (matrix matching), an equivalent volume of blank plasma or DPBS was added to the necessary wells, followed by quenching w ith 3-fold (v:v) cold acetonitrile containing warfarin as the internal standard. Subsequently, the sealed plates were well -mixed at 600 rpm for 10 minutes and then centrifuged at 4000 rpm for 20 minutes. Supernatants were transferred to analytical […] Test compound concentrations were quantified in both the buffer and plasma chambers by determining peak areas relative to the internal standard. […]

[2] = mouse plasma, regression of log concentration over time points 0, 3, 24, 48 h

O=C1CCC(N2Cc3cc(Nc4noc5ccccc45)ccc3C2=O)C(=O)N1 (stereo not shown) [SJ3149]
solubility at 18 h (Aqueous solubility assay): 36 µM (≈ 13.5 µg/mL)
Plasma stability ([1]; mouse): > 10 h

O=C1CCC(N2Cc3cc(Nc4noc5ccccc45)ccc3C2=O)C(=O)N1 (stereo not shown) [SJ001043149-1]
Calculated Concentration ([1]; mouse plasma, time point 3h): 89.527 and 94.878 and 96.383
Calculated Concentration ([1]; mouse plasma, time point 24h): 48.667 and 48.995 and 51.103
Calculated Concentration ([1]; mouse plasma, time point 48h): 26.458 and 25.987 and 26.969
Ke [1, 2]: 0.028
t(1/2) [1, 2]: 24.7479

Reference: paper PMC10791743, “Selective CK1α degraders exert antiproliferative activity against a broad range of human cancer cell lines” (Nature Communications, 2024)
